Results published in US7446199B2, “Compositions useful as inhibitors of protein kinases” (Vertex Pharmaceuticals Incorporated, priority 2003, dated 2008).
pKi: −log10 of the molar value.

Columns and labels:
[1] = target: T1, JAK3 (Homo sapiens, UniProt P52333); assay: JAK3 inhibition assay (ELISA, Poly (Glu, Ala, Tyr) coated plates); format: biochemical; conditions: 2 mM ATP, 60 minutes at 30° C.
T1 sequence (P52333 1-1124): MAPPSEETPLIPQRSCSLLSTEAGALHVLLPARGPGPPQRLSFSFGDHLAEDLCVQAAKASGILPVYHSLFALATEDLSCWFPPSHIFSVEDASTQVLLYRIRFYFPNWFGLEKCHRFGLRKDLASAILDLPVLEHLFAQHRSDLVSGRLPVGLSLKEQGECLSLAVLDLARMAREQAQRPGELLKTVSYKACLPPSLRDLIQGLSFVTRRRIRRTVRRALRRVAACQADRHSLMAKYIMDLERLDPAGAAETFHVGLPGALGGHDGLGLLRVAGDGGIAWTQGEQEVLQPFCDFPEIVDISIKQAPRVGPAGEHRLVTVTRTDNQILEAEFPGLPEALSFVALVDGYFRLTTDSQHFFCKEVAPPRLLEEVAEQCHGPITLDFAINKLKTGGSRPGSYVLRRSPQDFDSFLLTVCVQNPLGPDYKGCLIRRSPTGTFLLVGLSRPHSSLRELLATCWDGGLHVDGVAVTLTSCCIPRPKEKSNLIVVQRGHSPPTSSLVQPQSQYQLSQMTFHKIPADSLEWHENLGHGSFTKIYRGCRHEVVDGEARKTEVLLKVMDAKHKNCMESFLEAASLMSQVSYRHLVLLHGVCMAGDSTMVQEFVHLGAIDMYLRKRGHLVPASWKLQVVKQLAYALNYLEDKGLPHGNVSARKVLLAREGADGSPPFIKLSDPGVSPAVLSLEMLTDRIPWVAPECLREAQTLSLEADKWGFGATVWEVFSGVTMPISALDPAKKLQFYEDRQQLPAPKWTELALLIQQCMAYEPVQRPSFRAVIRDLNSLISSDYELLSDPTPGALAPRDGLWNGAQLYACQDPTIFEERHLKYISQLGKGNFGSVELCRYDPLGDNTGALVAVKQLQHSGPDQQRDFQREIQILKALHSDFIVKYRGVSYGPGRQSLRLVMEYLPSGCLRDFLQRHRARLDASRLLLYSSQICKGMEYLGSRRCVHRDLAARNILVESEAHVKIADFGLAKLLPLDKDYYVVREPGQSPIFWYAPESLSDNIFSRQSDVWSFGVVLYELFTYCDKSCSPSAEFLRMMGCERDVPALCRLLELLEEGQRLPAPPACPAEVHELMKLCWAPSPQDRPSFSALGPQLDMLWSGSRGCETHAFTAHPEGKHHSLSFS
Method in brief: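 ELISA on Poly(Glu,Ala,Tyr) 6:3:1-coated plates with 2 mM ATP and 5 mM MgCl2. JAK enzyme started the reaction, run 60 min at 30° C. Phosphotyrosine was detected with HRP-conjugated 4G10 antibody and TMB, read at 450 nm, and IC50 was derived from optical densities.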

[2] = target: T2, Aurora-2 (Homo sapiens, UniProt O14965); assay: Inhibition of AUR-2, coupled enzyme assay; format: biochemical; conditions: 70 nM Aurora-2, 800 μM peptide LRRASLG, 30° C.
T2 construct: addition of 10 μL of Aurora-2 stock solution to give a final concentration of 70 nM
T2 sequence (O14965 1-403): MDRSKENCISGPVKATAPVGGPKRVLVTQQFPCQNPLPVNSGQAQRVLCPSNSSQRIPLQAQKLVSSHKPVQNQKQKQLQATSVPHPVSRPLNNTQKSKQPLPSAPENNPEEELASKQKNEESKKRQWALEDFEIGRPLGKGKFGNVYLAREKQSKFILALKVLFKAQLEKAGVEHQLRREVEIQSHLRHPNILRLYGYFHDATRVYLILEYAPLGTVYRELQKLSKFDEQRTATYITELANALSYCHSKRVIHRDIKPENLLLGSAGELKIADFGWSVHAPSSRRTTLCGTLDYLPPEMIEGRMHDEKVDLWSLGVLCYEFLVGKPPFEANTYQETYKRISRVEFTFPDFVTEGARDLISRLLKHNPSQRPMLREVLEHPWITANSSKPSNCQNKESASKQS
Method: Compounds are screened in the following manner for their ability to inhibit Aurora-2 using a standard coupled enzyme assay (Fox et al. (1998) Protein Sci 7, 2249). To an assay stock buffer solution containing 0.1M HEPES 7.5, 10 mM MgCl2, 1 mM DTT, 25 mM NaCl, 2.5 mM phosphoenolpyruvate, […], […], […], and 800 μM peptide (LRRASLG, American Peptide, Sunnyvale, Calif.) is added a DMSO solution of a compound of the present invention to a final concentration of 30 μM. The resulting mixture is incubated at 30° C. for 10 min. The reaction was initiated by the addition of 10 μL of Aurora-2 stock solution to give a final concentration of 70 nM in the assay. The rates of reaction are obtained by monitoring absorbance at 340 nm over a 5 minute read time at 30° C. using a BioRad Ultramark plate reader (Hercules, Calif.). The Ki values are determined from the rate data as a function of inhibitor concentration.

SMILES | pKi [1] | pKi [2]
Clc1cccc(-c2cnoc2-c2c[nH]c3ncccc23)c1Cl [Compound 2, 3-[4-(2,3-Dichloro-phenyl)-isoxazol-5-yl]-1H-pyrrolo[2,3-b]pyridine] | 6.00 to 6.70 | 6.00 to 6.70
Fc1cccc(-c2cnoc2-c2c[nH]c3ncc(-c4ncccn4)cc23)c1F [Compound 75, 3-[4-(2,3-Difluoro-phenyl)-isoxazol-5-yl]-5-pyrimidin-2-yl-1H-pyrrolo[2,3-b]pyridine] | > 6.70 | 6.00 to 6.70
Fc1cccc(-c2cnoc2-c2c[nH]c3ncc(-c4c[nH]cn4)cc23)c1F [Compound 76, 3-[4-(2,3-Difluoro-phenyl)-isoxazol-5-yl]-5-(3H-imidazol-4-yl)-1H-pyrrolo[2,3-b]pyridine] | > 6.70 | > 6.70
Fc1cccc(-c2cnoc2-c2c[nH]c3ncc(-c4ccc(CN5CCCC5)cc4)cc23)c1F [Compound 93, 3-[4-(2,3-Difluoro-phenyl)-isoxazol-5-yl]-5-(4-pyrrolidin-1-ylmethyl-phenyl)-1H-pyrrolo[2,3-b]pyridine] | > 6.70 | > 6.70
O=c1[nH]ccc2c(-c3oncc3-c3cccc(F)c3F)c[nH]c12 [Compound 145, 3-[4-(2,3-Difluoro-phenyl)-isoxazol-5-yl]-1,6-dihydro-pyrrolo[2,3-c]pyridin-7-one] | 6.00 to 6.70 | 6.00 to 6.70
Fc1cccc(-c2cnoc2-c2c[nH]c3ncccc23)c1F [Compound 1, 3-[4-(2,3-Difluoro-phenyl)-isoxazol-5-yl]-1H-pyrrolo[2,3-b]pyridine] | 6.00 to 6.70 | 6.00 to 6.70
CS(=O)(=O)Nc1ccc(-c2cnc3[nH]cc(-c4oncc4-c4cccc(F)c4F)c3c2)cc1 [Compound 98, N-(4-{3-[4-(2,3-Difluoro-phenyl)-isoxazol-5-yl]-1H-pyrrolo[2,3-b]pyridin-5-yl}-phenyl)-methane sulfonamide] | > 6.70 | > 6.70
Fc1cccc(-c2cnoc2-c2c[nH]c3ncc(-c4ccncc4)cc23)c1F [Compound 57, 3-[4-(2,3-Difluoro-phenyl)-isoxazol-5-yl]-5-pyridin-4-yl-1H-pyrrolo[2,3-b]pyridine] | > 6.70 | > 6.70

Second part, the compound after the results:

pKi [1] | pKi [2] | SMILES
> 6.70 | 6.00 to 6.70 | CN(C)Cc1ccnc(-c2cnc3[nH]cc(-c4oncc4-c4cccc(F)c4F)c3c2)c1 [Compound 82, (2-{3-[4-(2,3-Difluoro-phenyl)-isoxazol-5-yl]-1H-pyrrolo[2,3-b]pyridin-5-yl}-pyridin-4-ylmethyl)-dimethyl-amine]
> 6.70 | > 6.70 | CC(=O)Nc1ccc(-c2cnc3[nH]cc(-c4oncc4-c4cccc(F)c4F)c3c2)cc1 [Compound 95, N-(4-{3-[4-(2,3-Difluoro-phenyl)-isoxazol-5-yl]-1H-pyrrolo[2,3-b]pyridin-5-yl}-phenyl)-acetamide]
> 6.70 | > 6.70 | CN1CCN(c2ccc(-c3cnc4[nH]cc(-c5oncc5-c5cccc(F)c5F)c4c3)cn2)CC1 [Compound 71, 3-[4-(2,3-Difluoro-phenyl)-isoxazol-5-yl]-5-[6-(4-methyl-piperazin-1-yl)-pyridin-3-yl]-1H-pyrrolo[2,3-b]pyridine]
> 6.70 | > 6.70 | CN1CCN(Cc2ccc(-c3cnc4[nH]cc(-c5oncc5-c5cccc(F)c5F)c4c3)cc2)CC1 [Compound 94, 3-[4-(2,3-Difluoro-phenyl)-isoxazol-5-yl]-5-[4-(4-methyl-piperazin-1-ylmethyl)-phenyl]-1H-pyrrolo[2,3-b]pyridine]
> 6.70 | > 6.70 | Fc1cccc(-c2cnoc2-c2c[nH]c3ncc(-c4cccnc4)cc23)c1F [Compound 59, 3-[4-(2,3-Difluoro-phenyl)-isoxazol-5-yl]-5-pyridin-3-yl-1H-pyrrolo[2,3-b]pyridine]
> 6.70 | > 6.70 | Fc1cccc(-c2cnoc2-c2c[nH]c3ncc(-c4ccc(N5CCNCC5)cc4)cc23)c1F [Compound 68, 3-[4-(2,3-Difluoro-phenyl)-isoxazol-5-yl]-5-(4-piperazin-1-yl-phenyl)-1H-pyrrolo[2,3-b]pyridine]
